# According to patent publication US20120171166A1, “SYNBIOTIC COMBINATION OF PROBIOTIC AND HUMAN MILK OLIGOSACCHARIDES TO PROMOTE GROWTH OF BENEFICIAL MICROBIOTA” (ABBOTT LABORATORIES, priority 2010, published 2012):
# Entries after “also recorded” stand apart in the source; their conditions may differ.
# How the values were obtained:
# B. infantis M-63 = experiment: Bacterial growth assay (OD600), B. infantis M-63; type: cell-based, Bifidobacterium infantis; settings: 1% carbohydrate in sMRS+cysteine
# Experimental: (§1) All bifidobacteria strains are initially inoculated from frozen stocks, grown in deMan Rogosa Sharpe (MRS) broth (Difco, Detroit, Mich.) supplemented with 0.5 g/L L-cysteine and incubated at 37° C. for 24 h in an anaerobic chamber (90% N2, 5% CO2 and 5% H2). Subsequently, the cultures are passed twice on a semi-synthetic MRS medium (sMRS)+0.5 g/L L-cysteine which is supplemented with 1% (w/v) filter-sterilized glucose as the sole carbohydrate source. After the 2nd pass, cultures are prepared to use as inoculums for growth assays described below. For bifidobacteria strains, the same procedure is followed except all media are supplemented with 0.5 g/l L-cysteine/HCl.
# (§2) After the 2nd pass in sMRS+glucose+cysteine, the cultures are washed once with 10 mL of sterile sMRS+cysteine (no carbohydrate), resuspended in 10 ml of sterile sMRS+cysteine (no carbohydrate) and then used as a 1% inoculum. The carbohydrates are sterilized with a 0.22 micron filter and used at a 1% final concentration. Cell growth is performed in 250 μL of sMRS+cysteine covered with 50 μL of mineral oil in a Bioscreen 100-well Honeycomb plate. Cell growth is monitored by measuring optical density at 600 nm (OD600) using a Bioscreen C Automated Microbiology Growth Curve Analysis System. The plate reader is operated in discontinuous mode, with absorbance readings performed in 30-minute intervals, and preceded by 30-second shaking intervals at maximum speed. Controls consist of inoculated medium lacking carbohydrate. Due to space limitations on the microtitre plate, the carbohydrates are divided into three separate groups: plate A (HMO precursors: glucose, galactose, lactose, NAG, fucose, fructose and sialic acid), plate B (Prebiotics: glucose, Purimune™ GOS, purified Purimune™ GOS, Vivinal® GOS, purified Vivinal® GOS, scFOS and PDX), and plate C (HMOs: glucose, 6′-SL, 3′-SL, 2′-FL, 3′-FL and LNnT). All three plates include a positive control (glucose) and negative control (no carbohydrate).
# (§3) The OD600 data for each carbohydrate is corrected by subtracting the OD600 of the basal media (sMRS) from the sample plate for each probiotic. Maximum OD is determined by inspection of the corrected growth data. OD is determined by subtracting the initial corrected OD (time point 0) from the maximum corrected OD. Samples are grown in biologically independent triplicates and the resulting growth kinetic data are expressed as the mean of these replicates.
# (§4) For the growth curve plots, OD600 vs. time is first plotted for the bacteria grown on medium lacking carbohydrate (sMRS). For all other carbohydrates, the OD600 data is corrected by subtracting the OD600 of sMRS.
# [1] = system: Bifidobacterium spp. (12 bifidobacteria strains); experiment: Bacterial growth assay (OD600), all bifidobacteria strains tested (Example 37); type: cell-based; settings: for growth / ability to ferment the carbohydrate (OD600): carbohydrate at 1% final concentration in sMRS+cysteine, all bifidobacteria tested
# Experimental: as §1, §2, §3, §4
# B. infantis ATCC 15697 = experiment: Bacterial growth assay (OD600), B. infantis ATCC 15697; type: cell-based, Bifidobacterium infantis; settings: 1% carbohydrate in sMRS+cysteine
# Experimental: as §1, §2, §3, §4
# [2] = system: infant fecal inoculum (diluted feces); experiment: In vitro fermentation model simulating large bowel fermentation with infant fecal inoculum (Example 36); type: cell-based, human infant; settings: for pH change from baseline: at 3, 6, and 12 h after inoculation, comparison among substrates (P<0.0001)
# enteric nerve cells = experiment: Peristalsis model using luminally perfused mouse colon (Example 35); settings: colon muscle perfused at 1, 0.5 and 0.1 mg/mL for 15 minutes; for stimulation of enteric nerve cells: without involving gut microbiota and/or their metabolites
# Experimental: In this Example, the effect of 2′-fucosyllactose (2′FL) or 3′ fucosyllactose (3′FL) on stimulating enteric nerve cells in the gastrointestinal tract of rodents is analyzed.
# Specifically, a peristalsis model using luminally perfused mouse colon is used to test the stimulation effect of 2′FL or 3′FL on enteric nerve cells. Colon muscle is perfused with 2′FL or 3′FL, at concentrations of 1 mg/mL, 0.5 mg/mL, and 0.1 mg/mL, for 15 minutes. The frequency and amplitude of contractions of the muscle is analyzed.
# B. breve ATCC 15700 = experiment: Bacterial growth assay (OD600), B. breve ATCC 15700; type: cell-based, Bifidobacterium breve; settings: 1% carbohydrate in sMRS+cysteine
# Experimental: as §1
# After the 2nd pass in sMRS+glucose+cysteine, the cultures are washed once with 10 mL of sterile sMRS+cysteine (no carbohydrate), resuspended in 10 ml of sterile sMRS+cysteine (no carbohydrate) and then used as a 1% inoculum. The carbohydrates are sterilized with a 0.22 micron filter and used at a 1% final concentration. […] Cell growth is monitored by measuring optical density at 600 nm (OD600) using a Bioscreen C Automated Microbiology Growth Curve Analysis System. The plate reader is operated in discontinuous mode, with absorbance readings performed in 30-minute intervals, and preceded by 30-second shaking intervals at maximum speed. […]
Compound,growth / ability to ferment the carbohydrate (OD600) (B. infantis M-63),growth / ability to ferment the carbohydrate (OD600) [1],growth / ability to ferment the carbohydrate (OD600) (B. infantis ATCC 15697),fermentation rate [2],"fermentation rate class (rapidly-, medium-, slowly-fermented oligosaccharide) [2]",further results
2′-fucosyllactose [2′FL],able to ferment,only B. infantis ATCC 15697 and B. infantis M-63 are able to ferment,able to ferment,"about 4,872 μg/g of dry matter/hour",–,pH change from baseline [2]: greatest; amplitude of contraction (enteric nerve cells): reduced consistently and in a dose response fashion; frequency of contraction (enteric nerve cells): reduced consistently and in a dose response fashion; stimulation of enteric nerve cells (enteric nerve cells): direct stimulation of nerve cells; stimulation of enteric nerve cells (enteric nerve cells; listed as 2′-fucosyllactose): stimulates enteric nerve cells
3′-fucosyllactose [3′FL],able to ferment,only B. infantis ATCC 15697 and B. infantis M-63 are able to ferment,able to ferment,–,Medium-fermented,"amplitude of contraction (enteric nerve cells): reduced consistently and in a dose response fashion; effectiveness on gut motility, 3′FL compared with 2′FL (enteric nerve cells): more effective than 2′FL; frequency of contraction (enteric nerve cells): reduced consistently and in a dose response fashion; stimulation of enteric nerve cells (enteric nerve cells): direct stimulation of nerve cells"
"CC(=O)N[C@H]1[C@H](O[C@H]2[C@@H](O)[C@@H](CO)O[C@@H](O[C@H]3[C@H](O)[C@@H](O)C(O)O[C@@H]3CO)[C@@H]2O)O[C@H](CO)[C@@H](O[C@@H]2O[C@H](CO)[C@H](O)[C@H](O)[C@H]2O)[C@@H]1O (mixture of isomers) [LNnT, Lacto-N-Neotetraose]",grow well; also recorded: able to ferment,–,grow well; also recorded: able to ferment,"about 4,488 μg/g of dry matter/hour",–,growth / ability to ferment the carbohydrate (OD600) (B. breve ATCC 15700): grow well; also recorded: able to ferment; pH change from baseline [2]: greatest
"CC(=O)N[C@H]1[C@H]([C@H](O)[C@H](O)CO)O[C@@](O[C@H]2[C@@H](O)[C@@H](CO)O[C@@H](O[C@H]3[C@H](O)[C@@H](O)C(O)O[C@@H]3CO)[C@@H]2O)(C(=O)O)C[C@@H]1O (stereo partly shown) [3′SL, 3′-sialyllactose]",able to ferment,only B. infantis ATCC 15697 and B. infantis M-63 are able to ferment,able to ferment,–,Medium-fermented,–
"CC(=O)N[C@H]1[C@H]([C@H](O)[C@H](O)CO)O[C@@](OC[C@H]2O[C@@H](O[C@H]3[C@H](O)[C@@H](O)[C@H](O)O[C@@H]3CO)[C@H](O)[C@@H](O)[C@H]2O)(C(=O)O)C[C@@H]1O [6′SL, 6′-sialyllactose]",able to ferment,only B. infantis ATCC 15697 and B. infantis M-63 are able to ferment,able to ferment,"about 1,809 μg/g of dry matter/hour",Medium-fermented,total SCFA production ([2]; 12 h of fermentation): greater (P<0.05) for the 6′SL and GOS substrates compared to 2′FL; total SCFA production ([2]; after 3 and 6 h of fermentation): lower (P<0.05) with 6′SL compared to GOS
"C[C@H](O)[C@@H](O)[C@@H](O)[C@H](O)C=O [L-fucose, L-(−) Fucose]",not able to ferment,None of the bifidobacteria are able to ferment,not able to ferment,–,–,–
"CC(=O)N[C@H]1C(O)O[C@H](CO)[C@@H](O)[C@@H]1O (stereo partly drawn) [NAG, N-acetyl-D-glucosamine]",–,Only B. breve ATCC 15700 is able to ferment,–,–,–,growth / ability to ferment the carbohydrate (OD600) (B. breve ATCC 15700): able to ferment
"O=C(CO)[C@@H](O)[C@H](O)[C@H](O)CO [fructose, D-Fructose]",–,majority of bifidobacteria is able to ferment,–,–,–,–
"OC[C@H]1O[C@@H](O[C@H]2[C@H](O)[C@@H](O)[C@@H](O)O[C@@H]2CO)[C@H](O)[C@@H](O)[C@H]1O [lactose, α-Lactose]",–,–,–,–,–,"growth on the carbohydrate (OD600) ([1]; 1% carbohydrate, bifidobacteria which are not able to ferment galactose): reduced growth"
"CC(=O)N[C@H]1[C@H]([C@H](O)[C@H](O)CO)OC(O)(C(=O)O)C[C@@H]1O (stereo partly shown) [sialic acid, N-acetylneuraminic acid]",not able to ferment,None of the bifidobacteria are able to ferment,not able to ferment,–,–,–
